Source: patent US5565448A, “Medicament” (SmithKline Beecham Corporation, priority 1994, dated 1996)

Columns and labels:
hindpaw inflammation = test: Adjuvant-induced arthritis in Lewis rats; type: in vivo; conditions: Rattus norvegicus, ip; AA Lewis rats, daily intraperitoneal administration; read-out: ED50, suppression of hindpaw inflammation
Method: Adjuvant-induced arthritis (AA) was produced in Lewis rats by a single intradermal injection of 0.75 mg of Mycobacterium butyricum in light paraffin oil, into the base of the tail. The adjuvant arthritis occurs after a delay of approximately 10 days and is characterized by inflammation of the hindpaws. In prophylatic studies, compounds were administered daily for 5 days, beginning on the sixth day after adjuvant injection. Hindpaw volumes were measured plethysmographically on days 14, 17 and 20. [formula]
Daily intraperitoneal administration of compound B to AA rats produced a marked, dose related suppression of hindpaw inflammation with an ED50 of <10 mg/kg.

HIV-infected cells = test: HIV syncytial assay; type: cell-based; conditions: syncytial co-cultivation assay
Method: Chronically infected cells are employed as cell fusion centers in a rapid syncytial co-cultivation assay with uninfected […] target cells. Syncytia develop overnight, in contrast to the 3 to 7 days required for the cytopathic effect to occur in similar cultures infected with cell-free virus preparations. Inhibition of fusion by soluble CD4 and other potential anti-HIV compounds is assessed using the assay described by Truneh, et al., Cellular Immunology, 131:98 (1990).

platelets = test: Inhibition of PDBu-induced serotonin release from platelets; type: cell-based
Description: The effect of compounds of Formula (I) in this assay is examined using the protocol in Sano, et al., J. Biol. Chem., 258:2010 (1983).

rabbit aortic strip = test: Inhibition of PDBu-induced contraction of rabbit aortic strip; type: cell-based; conditions: Oryctolagus cuniculus; PDBu as agonist
Description: The effect of compounds of Formula (I) in this assay is examined using the protocol in Ohlstein, et al., J. Pharm. Exp. Ther., 250:548 (1989), except PDBu and compound B are substituted in place of the agonist and antagonist, respectively, therein described.

[1] = test system: mean arterial blood pressure; test: Antihypertensive activity in conscious spontaneously hypertensive (SHR) rats; type: in vivo; conditions: Rattus norvegicus, intravenous, read-out: ED25, dose needed to reduce mean arterial pressure by 25 mm Hg
Method: The antihypertensive activity of the compounds is measured by their ability to reduce mean arterial blood pressure in conscious, spontaneously hypertensive (SHR) rats. The animals are prepared with indwelling vascular catheters are described above (A) for the administration of compounds and direct recording of blood pressure. After complete recovery from surgery (4-5 days), the rats are placed into retainers to which they have become accustomed. Mean arterial pressure is recorded continuously prior to and following the intravenous administration of compounds. The dose of compound needed to reduce mean arterial pressure by 25 mm Hg (ED25) is used as an estimate of potency. The ED25 for compound B is about 15mg/kg.

Jurkat cells = test: Inhibition of PHA and ionophore-induced IL-2 production in Jurkat cells; type: cell-based; conditions: Homo sapiens, IL-2 ELISA
Method: IL-2 produced in response to PHA and ionophore in the absence or presence of compound B is assayed by an ELISA kit purchased from Advanced Magnetics, Cambridge, MA (Human 1L-2-specific ELISA). The procedure is described by Moriya, N., Journal of Immunoassay, 8:131 (1987) and Robb, R., Hunam, J., Methods in Enzymology: Immunochemical Techniques, Section H (G.Disagato, J. Langone, and H. vanVanakis, eds.: Academic Press, N.Y., vol. 116, p. 493. 1985).

[2] = test system: angiotensin II pressor response; test: Inhibition of pressor response to angiotensin II in conscious rats; type: in vivo; conditions: Rattus norvegicus, intravenous, read-out: ED50, dose producing 50% inhibition of the control response to angiotensin II
Method: Rats are prepared with indwelling femoral arterial and venous catheters and a stomach tube (Gellai, et al., Kidney Int. 15:419, 1979). Two to three days following surgery the rats are placed in restrainers and blood pressure is continuously monitored from the arterial catheter with a pressure transducer and recorded on a polygraph. The change in mean arterial pressure in response to intravenous injections of […] angiotensin II is compared at various time points prior to and following the administration of the compounds intravenously at doses of 0.1 to 300 mg/kg. The dose of compound needed to produce 50% inhibition of the control response to angiotensin II (ED50) is used to estimate the potency of the compounds. The ED50 of compound B is about 30 mg/kg.

[3] = test system: rat cerebellar granule cells; test: Inhibition of glutamate-induced neurotoxicity in rat cerebellar granule cells; type: cell-based
Description: The effect of compounds of Formula (I) in this assay is examined using the protocol in Lysko, et al, Brain Research, 499:258 (1989).

TNF = test: Endotoxic shock model: TNF production and survival in endotoxin-treated rats; type: in vivo, rat
Description: 6, 1991 and in Hanna, Patent Cooperation Treaty Application Number WO 90/15534, published Dec. 27, 1990.

## NC1=NC(=O)/C(=C2\CCNC(=O)c3[nH]c(Br)cc32)N1 [Compound B, 4-(2-amino-4-oxo-2-imidazolin-5-ylidene)-2-bromo-4,5,6,7-tetrahydropyrrolo(2,3-c)azepine-8-one]
Hindpaw inflammation
  ED50: < 10 mg/kg
HIV-infected cells
  Inhibition of fusion of HIV-infected cells to CD4-positive, uninfected cells: inhibited the fusion
platelets
  Inhibition of PDBu-induced serotonin release from platelets: showed inhibition
Rabbit aortic strip
  IC50: 500 to 800 nM
[1]
  ED (25 mm Hg): ~15 mg/kg
Jurkat cells
  IC50: ~2000 nM
[2]
  ED50: ~30 mg/kg
[3]
  IC50: ~600 nM
TNF
  Inhibition of the production of TNF: inhibited the production of TNF
  Survival rate of animals with endotoxic shock: increased the survival rate
